Each compound was assayed against T1, P2X4 receptor (Homo sapiens, UniProt Q99571) (assay: Measurement of Ca2+ influx in transfected 1321N1 astrocytoma cells (P2X4 inhibitory potency)). Details: agonist-mediated Ca2+ influx, FLUO-4, 1321N1 astrocytoma cells; antagonists added 30 min before agonist.
T1 construct: expressed in transfected cells; host or cells: 1321N1 astrocytoma cells, retroviral vector pQCXIN, G418 selection, monoclones
T1 sequence (Q99571 1-388): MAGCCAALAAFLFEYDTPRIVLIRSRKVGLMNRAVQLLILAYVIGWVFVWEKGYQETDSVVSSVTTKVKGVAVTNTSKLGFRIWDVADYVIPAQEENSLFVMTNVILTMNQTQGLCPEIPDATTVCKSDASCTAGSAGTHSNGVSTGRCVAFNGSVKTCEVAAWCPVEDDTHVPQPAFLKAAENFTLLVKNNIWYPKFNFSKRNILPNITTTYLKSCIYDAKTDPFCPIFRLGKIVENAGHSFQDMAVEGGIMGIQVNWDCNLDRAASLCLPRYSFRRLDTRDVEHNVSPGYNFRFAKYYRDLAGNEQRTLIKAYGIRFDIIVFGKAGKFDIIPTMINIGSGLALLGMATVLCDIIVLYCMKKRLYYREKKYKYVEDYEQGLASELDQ
Assay type: cell-based
How it was run: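 Stable 1321N1 astrocytoma cells expressing human P2X4, loaded with FLUO-4 AM (2.4 μM) in HBSS/HEPES pH 7.3 for 1 h at 23 °C. Antagonists added 30 min before agonist; fluorescence at 520 nm recorded for 30 s. Compounds tested at 7–8 concentrations spanning three log units.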

Row | IC50 [nM] | SMILES
1 | 0.1 to 19 | Cc1nsc(-c2ccc(C)c(NCC(=O)N3CCc4c(NC(=O)[C@H]5CCCN5)cccc43)c2)n1 [Example 81, (R)-N-(1-((2-methyl-5-(3-methyl-1,2,4-thiadiazol-5-yl)phenyl)glycyl)indolin-4-yl) pyrrolidine-2-carboxamide]
2 | 70 to 99 | Cc1nsc(-c2ccc(C)c(NCC(=O)N3CCc4c(NC(=O)[C@H](O)[C@@H](O)C(=O)O)cccc43)c2)n1 [Example 82, (2R,3R)-2,3-dihydroxy-4-((1-((2-methyl-5-(3-methyl-1,2,4-thiadiazol-5-yl)phenyl)-glycyl)indolin-4-yl)amino)-4-oxobutanoic acid]
3 | 20 to 39 | Cc1noc(-c2ccc(C)c(NCC(=O)N3CCc4c3cccc4N3C(=O)CNC3=O)c2)n1 [Example 83, 3-(1-((2-methyl-5-(3-methyl-1,2,4-oxadiazol-5-yl)phenyl)glycyl)indolin-4-yl)imidazolidine-2,4-dione]
4 | 0.1 to 19 | CCc1nsc(-c2ccc(C)c(NCC(=O)N3CCc4c(O)cccc43)c2)n1 [Example 84, 2-((5-(3-ethyl-1,2,4-thiadiazol-5-yl)-2-methylphenyl)amino)-1-(4-hydroxyindolin-1-yl) ethan-1-one]
5 | 0.1 to 19 | Cc1nsc(-c2ccc(C)c(NCC(=O)N3CCc4c(O)cccc43)c2)n1 [Example 85, 1-(4-hydroxyindolin-1-yl)-2-((2-methyl-5-(3-methyl-1,2,4-thiadiazol-5-yl)phenyl)-amino)ethan-1-one]
6 | 40 to 69 | Cc1noc(-c2ccc(C)c(NCC(=O)N3CCc4c(O)cccc43)c2)n1 [Example 86, 1-(4-hydroxyindolin-1-yl)-2-((2-methyl-5-(3-methyl-1,2,4-oxadiazol-5-yl)phenyl)amino)-ethan-1-one]
7 | 40 to 69 | CCc1nsc(-c2ccc(C)c(NCC(=O)N3CCc4c(OC(F)(F)C(=O)O)cccc43)c2)n1 [Example 87, 2-((1-((5-(3-ethyl-1,2,4-thiadiazol-5-yl)-2-methyl-phenyl)glycyl)indolin-4-yl)oxy)-2,2-difluoro-acetic acid]
8 | 40 to 69 | Cc1nsc(-c2ccc(C)c(NCC(=O)N3CCc4c(C(N)C(F)(F)F)cccc43)c2)n1 (stereo not shown) [Example 88, 1-(4-(1-amino-2,2,2-trifluoroethyl)indolin-1-yl)-2-((2-methyl-5-(3-methyl-1,2,4-thiadiazol-5-yl)phenyl)-amino)ethan-1-one]
9 | 70 to 99 | Cc1noc(-c2ccc(C)c(NCC(=O)N3CCc4c(C(N)C(F)(F)F)cccc43)c2)n1 (stereo not shown) [Example 89, 1-(4-(1-amino-2,2,2-trifluoroethyl)indolin-1-yl)-2-((2-methyl-5-(3-methyl-1,2,4-oxadiazol-5-yl)phenyl)-amino)ethan-1-one]
10 | > 100 | Cc1nsc(-c2ccc(C)c(NCC(=O)N3CCc4c3ccnc4C(C)(C)O)c2)n1 [Example 90, 1-(4-(2-Hydroxypropan-2-yl)-2,3-dihydro-1H-pyrrolo[3,2-c]pyridin-1-yl)-2-((2-methyl-5-(3-methyl-1,2,4-thiadiazol-5-yl)phenyl)amino)ethan-1-one]
11 | > 100 | Cc1nsc(-c2ccc(C)c(NCC(=O)N3CCc4c3cncc4C(C)(C)O)c2)n1 [Example 91, 1-(4-(2-Hydroxypropan-2-yl)-2,3-dihydro-1H-pyrrolo[2,3-c]pyridin-1-yl)-2-((2-methyl-5-(3-methyl-1,2,4-thiadiazol-5-yl)phenyl)amino)ethan-1-one]
12 | > 100 | Cc1nsc(-c2ccc(C)c(NCC(=O)N3CCc4c3ccnc4C(C)O)c2)n1 (stereo not shown) [Example 92, 1-(4-(1-hydroxyethyl)-2,3-dihydro-1H-pyrrolo[3,2-c]pyridin-1-yl)-2-((2-methyl-5-(3-methyl-1,2,4-thiadiazol-5-yl)phenyl)amino)ethan-1-one]
13 | 0.1 to 19 | COc1ccc(-c2nc(C)ns2)cc1NCC(=O)c1c[nH]c2c(OC)cccc12 [Example 93, 1-(7-methoxy-1H-indol-3-yl)-2-((2-methoxy-5-(3-methyl-1,2,4-thiadiazol-5-yl)phenyl)-amino)ethan-1-one]
14 | 0.1 to 19 | COc1cc2[nH]cc(C(=O)CNc3cc(-c4nc(C)ns4)ccc3OC)c2cc1F [Example 94, 1-(5-fluoro-6-methoxy-1H-indol-3-yl)-2-((2-methoxy-5-(3-methyl-1,2,4-thiadiazol-5-yl)phenyl)amino)ethan-1-one]
15 | 0.1 to 19 | COc1ccc2c(C(=O)CNc3cc(-c4nc(C)ns4)ccc3C)c[nH]c2n1 [Example 95, 1-(6-methoxy-1H-pyrrolo[2,3-b]pyridin-3-yl)-2-((2-methyl-5-(3-methyl-1,2,4-thiadiazol-5-yl)phenyl)amino)ethan-1-one]
16 | 0.1 to 19 | CCc1noc(-c2ccc(OC)c(NCC(=O)c3c[nH]c4cc(OC)ccc34)c2)n1 [Example 96, 2-((5-(3-ethyl-1,2,4-oxadiazol-5-yl)-2-methoxyphenyl)amino)-1-(6-methoxy-1H-indol-3-yl)ethan-1-one]

Row | IC50 [nM] | SMILES
17 | 0.1 to 19 | CCc1noc(-c2ccc(OC)c(NCC(=O)c3c[nH]c4cc(OC)c(F)cc34)c2)n1 [Example 97, 2-((5-(3-ethyl-1,2,4-oxadiazol-5-yl)-2-methoxyphenyl)amino)-1-(5-fluoro-6-methoxy-1H-indol-3-yl) ethan-1-one]
18 | 0.1 to 19 | CCc1noc(-c2ccc(OC)c(NCC(=O)c3cn(C)c4cc(OC)c(F)cc34)c2)n1 [Example 98, 2-((5-(3-ethyl-1,2,4-oxadiazol-5-yl)-2-methoxyphenyl)amino)-1-(5-fluoro-6-methoxy-1-methyl-1H-indol-3-yl) ethan-1-one]
19 | 20 to 39 | Cc1nsc(-c2ccc(C)c(NCC(=O)c3cn4c5c(cccc35)C(=O)NCC4)c2)n1 [Example 99, 7-((2-methyl-5-(3-methyl-1,2,4-thiadiazol-5-yl)phenyl)glycyl)-3,4-dihydro-[1,4]diazepino[6,7,1-hi] indol-1(2H)-one]
20 | 20 to 39 | Cc1nsc(-c2ccc(C)c(NCC(=O)c3c[nH]c4ncccc34)c2)n1 [Example 100, 2-((2-methyl-5-(3-methyl-1,2,4-thiadiazol-5-yl)phenyl)amino)-1-(1H-pyrrolo [2,3-b]pyridin-3-yl) ethan-1-one]
21 | 20 to 39 | COc1cc2[nH]cc(C(=O)CNc3cc(-c4nc(C)ns4)cc(F)c3OC)c2cc1F [Example 101, 2-((3-fluoro-2-methoxy-5-(3-methyl-1,2,4-thiadiazol-5-yl)phenyl)amino)-1-(5-fluoro-6-methoxy-1H-indol-3-yl)ethan-1-one]
22 | 20 to 39 | Cc1nsc(-c2ccc(C)c(NCC(=O)c3c[nH]c4ccccc34)c2)n1 [Example 102, 1-(1H-indol-3-yl)-2-((2-methyl-5-(3-methyl-1,2,4-thiadiazol-5-yl)phenyl)amino)ethan-1-one]
23 | 20 to 39 | Cc1nsc(-c2ccc(C)c(NCC(=O)c3cn4c5c(cccc35)CCC4)c2)n1 [Example 103, 1-(5,6-dihydro-4H-pyrrolo[3,2,1-ij]quinolin-1-yl)-2-((2-methyl-5-(3-methyl-1,2,4-thiadiazol-5-yl)phenyl)amino)ethan-1-one]
24 | 20 to 39 | COc1ccc(-c2nc(C)ns2)cc1NCC(=O)c1c[nH]c2c3c(ccc12)CCC3 [Example 104, 2-((2-methoxy-5-(3-methyl-1,2,4-thiadiazol-5-yl)phenyl)amino)-1-(1,6,7,8-tetrahydrocyclopenta[g]indol-3-yl)ethan-1-one]
25 | 20 to 39 | Cc1nsc(-c2ccc(C)c(NCC(=O)c3cn4c5c(cccc35)OCC(C)(O)C4)c2)n1 (stereo not shown) [Example 105, 1-(3-hydroxy-3-methyl-3,4-dihydro-2H-[1,4]oxazepino[2,3,4-hi]indol-7-yl)-2-((2-methyl-5-(3-methyl-1,2,4-thiadiazol-5-yl)phenyl)-amino)ethan-1-one]
26 | 40 to 69 | Cc1nc(-c2ccc(C)c(NCC(=O)c3c[nH]c4ccccc34)c2)no1 [Example 106, 1-(1H-indol-3-yl)-2-((2-methyl-5-(5-methyl-1,2,4-oxadiazol-3-yl)phenyl)amino)ethan-1-one]
27 | 70 to 99 | CCc1noc(-c2cc(NCC(=O)c3c[nH]c4cc(OC)c(Br)cc34)c(OC)cc2Br)n1 [Example 108, 2-(4-bromo-5-(3-ethyl-1,2,4-oxadiazol-5-yl)-2-methoxyphenylamino)-1-(5-bromo-6-methoxy-1H-indol-3-yl) ethanone]
28 | 40 to 69 | CCc1noc(-c2cc(NCC(=O)c3c[nH]c4cc(OC)ccc34)c(OC)cc2Br)n1 [Example 109, 2-((4-bromo-5-(3-ethyl-1,2,4-oxadiazol-5-yl)-2-methoxy-phenyl)amino)-1-(6-methoxy-1H-indol-3-yl)ethan-1-one]
29 | 20 to 39 | COc1nccc2c(C(=O)CNc3cc(-c4nc(C)ns4)ccc3C)c[nH]c12 [Example 110, 1-(7-methoxy-1H-pyrrolo[2,3-c]pyridin-3-yl)-2-((2-methyl-5-(3-methyl-1,2,4-thiadiazol-5-yl)phenyl)amino) ethan-1-one]
30 | 40 to 69 | CCc1noc(-c2ccc(C)c(NCC(=O)c3cn(C)c4ccccc34)c2)n1 [Example 111, 2-((5-(3-ethyl-1,2,4-oxadiazol-5-yl)-2-methylphenyl)amino)-1-(1-methyl-1H-indol-3-yl)ethan-1-one]
31 | 0.1 to 19 | Cc1nsc(-c2ccc(C)c(NCC(=O)c3c[nH]c4c(C(C)O)cccc34)c2)n1 (stereo not shown) [Example 112, 1-(7-(1-hydroxyethyl)-1H-indol-3-yl)-2-((2-methyl-5-(3-methyl-1,2,4-thiadiazol-5-yl)phenyl)amino)ethan-1-one]

— patent US20260209215A1, “GLYCINE DERIVATIVES WITH P2X4 RECEPTOR-BLOCKING ACTIVITY AS DIAGNOSTICS AND FOR THE TREATMENT OF PAIN, INFLAMMATION, CANCER, AND OTHER P2X4 RECEPTOR-RELATED DISEASES” (RHEINISCHE-FRIEDRICH-WILHELMS-UNIVERSITÄT BONN, priority 2022, published 2026)
